# Laboratory results taken from patent US20230043204A1, “DIHYDROERGOTAMINE MESYLATE FORMULATIONS AND PRE-FILLED INJECTORS FOR THERAPEUTIC DELIVERY OF THE SAME” (Scienture, Inc., priority 2019, published 2023).
# Where a name gives a salt, the structure may show the parent alone.
# Key:
# Assay type in all cases: physicochemical
# [1] = Stability of formulations L, M, N at accelerated conditions (40° C., sealed vials; HPLC); details: Initial
# Description: (§1) The examples herein describe analysis of formulations comprising DHE, and analysis of impurity content. Unless specifically indicated otherwise, analysis was carried out by HPLC according to the parameters in Tables 2-4.
# (§2) Mobile Phase A in Tables 3 and 4 contains 2.75 g of sodium 1-heptane sulfonate in 1000 mL Purified Water, pH adjusted to 2.0 with o-phosphoric acid. Mobile Phase B in Tables 3 and 4 contains 200 mL of Mobile Phase A mixed with 800 mL of acetonitrile.
# Additional formulations “L”, “M”, and “N” were prepared according to Table 9 and analyzed for the concentration of DHE and impurities following one day in sealed vials at 40° C. Specific impurities were analyzed after storage in sealed vials after one and two weeks at 40° C. (Table 10).
# [2] = 5 mg/mL DHE mesylate stability in solvents suitable for parenteral injection (HPLC); parameters: Total Impurities Initial: unit not given here; details: for DHE (mg/mL) After 1 Week / Total Impurities After 1 Week: 1 week 40° C. sealed vial
# Description: as §1, §2
# Solvents that are suitable for parenteral injections were selected, and solutions of 5 mg/mL DHE mesylate in each (Table 5) were stored at 40° C. in sealed vials. Following 1 week of storage, the remaining amount of DHE was determined by HPLC, indicating solvents compatible with stable DHE storage.
# [3] = HPLC DHE and specific impurity analysis of formulations O and P on storage; details: 0 Time
# Description: as §1, §2
# The formulation of Table 11 (“P”) was prepared for use in canine studies. An additional formulation was prepared (“O”), replacing DMSO of formula P with an equal amount of propylene glycol.
# [4] = HPLC analysis of formulation J after one day of storage at room temperature; details: API sample as comparison
# Description: as §1, §2
# After one day of storage at room temperature, formulation J was analyzed for DHE and impurities, as shown in the last two rows of Table 8. Testing for specific impurities relative to a sample of API (DHE mesylate) yielded the results of Table 9.
# [5] = Solubility of DHE in solvents (observation); details: in DMSO, benzyl alcohol, ethanol, propylene glycol, and captisol
# From the text: Based on this discovery and the solubility and stability data generated above for various solvents, preservatives, and antioxidants, additional stable formulations are included as non-limiting examples in Table 15. Prophetic formulations are included as non-limiting examples in Tables 16 and 17.
compound,measurement,setting,value
"CN1C[C@H](C(=O)N[C@]2(C)O[C@@]3(O)[C@@H]4CCCN4C(=O)[C@H](Cc4ccccc4)N3C2=O)C[C@@H]2c3cccc4[nH]cc(c34)C[C@H]21 [DHE Mesylate, ergotaman-3′,6′,19-trione, 9,10-dihydro-12′-hydroxy-2′-methyl-5′-(phenylmethyl)-, (5′α)-, monomethane-sulfonate]",% Total Impurities,[1],0.2%
same,"impurity peak, RRT 0.87",[1],0
same,"impurity peak, RRT 0.92",[1],0.1
same,"impurity peak, RRT 1.22 (Impurity B)",[1],0.1
same,DHE (mg/mL) Initial,[2]; 5 mg/mL solution in 15% solution of Kollidon 30,1.7 mg/mL
same,DHE (mg/mL) Initial,"[2]; 5 mg/mL solution in Alcohol, USP",5 mg/mL
same,DHE (mg/mL) Initial,[2]; 5 mg/mL solution in Benzyl Alcohol,4.9 mg/mL
same,DHE (mg/mL) Initial,[2]; 5 mg/mL solution in DMSO,5.1 mg/mL
same,DHE (mg/mL) Initial,"[2]; 5 mg/mL solution in Glycerin, USP",1.3 mg/mL
same,DHE (mg/mL) Initial,[2]; 5 mg/mL solution in Glycerin:Ethanol (1:1),5.1 mg/mL
same,DHE (mg/mL) Initial,"[2]; 5 mg/mL solution in N,N Dimethyl Acetamide",5.1 mg/mL
same,DHE (mg/mL) Initial,[2]; 5 mg/mL solution in N-methyl pyrrolidone,5.1 mg/mL
same,DHE (mg/mL) Initial,[2]; 5 mg/mL solution in PEG 200,4.3 mg/mL
same,DHE (mg/mL) Initial,[2]; 5 mg/mL solution in Propylene Glycol,4.8 mg/mL
same,DHE (mg/mL) Initial,[2]; 5 mg/mL solution in Purified water,4.1 mg/mL
same,DHE (mg/mL) After 1 Week,[2]; 15% solution of Kollidon 30,3.7 mg/mL
same,Total Impurities After 1 Week,[2]; 15% solution of Kollidon 30,9.95
same,Total Impurities Initial,[2]; 15% solution of Kollidon 30,0.24
same,DHE (mg/mL) After 1 Week,"[2]; Alcohol, USP",5 mg/mL
same,Total Impurities After 1 Week,"[2]; Alcohol, USP",0.38
same,Total Impurities Initial,"[2]; Alcohol, USP",0.24
same,DHE (mg/mL) After 1 Week,[2]; Benzyl Alcohol,4.2 mg/mL
same,Total Impurities After 1 Week,[2]; Benzyl Alcohol,2.51
same,Total Impurities Initial,[2]; Benzyl Alcohol,9.58
same,DHE (mg/mL) After 1 Week,[2]; DMSO,5 mg/mL
same,Total Impurities After 1 Week,[2]; DMSO,0.47
same,Total Impurities Initial,[2]; DMSO,0.26
same,DHE (mg/mL) After 1 Week,"[2]; Glycerin, USP",6 mg/mL
same,Total Impurities After 1 Week,"[2]; Glycerin, USP",0.33
same,Total Impurities Initial,"[2]; Glycerin, USP",0.21
same,DHE (mg/mL) After 1 Week,[2]; Glycerin:Ethanol (1:1),5.1 mg/mL
same,Total Impurities After 1 Week,[2]; Glycerin:Ethanol (1:1),0.4
same,Total Impurities Initial,[2]; Glycerin:Ethanol (1:1),0.28
same,DHE (mg/mL) After 1 Week,"[2]; N,N Dimethyl Acetamide",5.4 mg/mL
same,Total Impurities After 1 Week,"[2]; N,N Dimethyl Acetamide",0.8
same,Total Impurities Initial,"[2]; N,N Dimethyl Acetamide",0.13
same,DHE (mg/mL) After 1 Week,[2]; N-methyl pyrrolidone,4.8 mg/mL
same,Total Impurities After 1 Week,[2]; N-methyl pyrrolidone,1.14
same,Total Impurities Initial,[2]; N-methyl pyrrolidone,0.33
same,DHE (mg/mL) After 1 Week,[2]; PEG 200,4.9 mg/mL
same,Total Impurities After 1 Week,[2]; PEG 200,1.36
same,Total Impurities Initial,[2]; PEG 200,0.25
same,DHE (mg/mL) After 1 Week,[2]; Propylene Glycol,5.1 mg/mL
same,Total Impurities After 1 Week,[2]; Propylene Glycol,0.42
same,Total Impurities Initial,[2]; Propylene Glycol,0.26
same,DHE (mg/mL) After 1 Week,[2]; Purified water,4.4 mg/mL
same,Total Impurities After 1 Week,[2]; Purified water,3.5
same,Total Impurities Initial,[2]; Purified water,0.24
same,% Total Impurities,[3],0.2%
same,"impurity peak, RRT 0.87",[3],0
same,"impurity peak, RRT 0.92",[3],0.1
same,"impurity peak, RRT 1.21 (Imp-B)",[3],0.1
same,Total Impurities following 1 day of storage,[4],0.19
same,"impurity peak, RRT 0.75",[4],0.03
same,"impurity peak, RRT 0.84 (Imp-C)",[4],0.02
same,"impurity peak, RRT 0.9",[4],0.03
same,"impurity peak, RRT 1.24",[4],0.11
"CN1C[C@H](C(=O)N[C@]2(C)O[C@@]3(O)[C@@H]4CCCN4C(=O)[C@H](Cc4ccccc4)N3C2=O)C[C@@H]2c3cccc4[nH]cc(c34)C[C@H]21 [DHE, (5′α)-9,10-dihydro-12′-hydroxy-2′-methyl-5′-(phenylmethyl)-ergotaman-3′,6′,18-trione]",solubility (observation in words),[5],highly soluble
